Reference: PubChem BioAssay (NCI)
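Values below derive from 48-hour exposures of cells grown in 96-well plates, with endpoints linearly interpolated between the two concentrations bracketing the appropriate inhibition level. The concentration for full growth arrest is given as TGI.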

What was measured:
Assay in all cases: NCI anticancer screen, dose series, 48 h
HCT-116 colon = test system: HCT-116 colon
MCF7 breast = test system: MCF7 breast
ACHN renal = test system: ACHN renal
A549 NSCLC = test system: A549 NSCLC
NCI-H522 lung = test system: NCI-H522 lung
RXF 393 renal = test system: RXF 393 renal
HT29 colon = test system: HT29 colon
IGROV1 ovarian = test system: IGROV1 ovarian
SK-MEL-28 melanoma = test system: SK-MEL-28 melanoma
UACC-257 melanoma = test system: UACC-257 melanoma
EKVX NSCLC = test system: EKVX NSCLC
CCRF-CEM leukemia = test system: CCRF-CEM leukemia
UO-31 renal = test system: UO-31 renal
786-0 renal = test system: 786-0 renal
SK-MEL-5 melanoma = test system: SK-MEL-5 melanoma
HCT-15 colon = test system: HCT-15 colon
KM12 colon = test system: KM12 colon
DU-145 prostate = test system: DU-145 prostate
SNB-19 CNS = test system: SNB-19 CNS

Measured: TGI

O=C(CC(C(=O)c1ccco1)c1ccsc1)c1ccco1 (stereo not given)
not listed: SNB-19 CNS
> 100 µM: all other assays above

CSc1nc(Cl)c(Br)c(Sc2nc(N)nc3nc[nH]c23)n1
28.2 µM: IGROV1 ovarian
12.4 µM: HCT-116 colon
3.45 µM: NCI-H522 lung
21.2 µM: HCT-15 colon
19 µM: KM12 colon
30.2 µM: SNB-19 CNS
9.38 µM: CCRF-CEM leukemia
36.8 µM: HT29 colon
17 µM: UO-31 renal
15.2 µM: 786-0 renal
48.7 µM: A549 NSCLC
30 µM: UACC-257 melanoma
30.3 µM: ACHN renal
26.4 µM: SK-MEL-5 melanoma
24 µM: SK-MEL-28 melanoma

Clc1ccc2c(c1)C1C(CO2)C(c2ccccc2)=NN1c1ccccc1 (stereo not given)
99.1 µM: CCRF-CEM leukemia
53.9 µM: UO-31 renal
68.6 µM: EKVX NSCLC
62.4 µM: HCT-116 colon
not listed: MCF7 breast | NCI-H522 lung | SK-MEL-5 melanoma | HCT-15 colon | DU-145 prostate
> 100 µM: all other assays above

COc1cc(/C=C(\C#N)C(=O)c2ccccc2)ccc1O
not listed: MCF7 breast | RXF 393 renal | DU-145 prostate
> 100 µM: all other assays above

Nc1ccc2nc(Nc3ccc(F)cc3)cnc2c1
not listed: MCF7 breast | RXF 393 renal | IGROV1 ovarian | DU-145 prostate
> 100 µM: all other assays above

CC(=O)OC1COC(Nc2ccc(C(C)=O)cc2)C(OC(C)=O)C1OC(C)=O (stereo not given)
not listed: HCT-116 colon | MCF7 breast | DU-145 prostate
> 100 µM: all other assays above

CN(C(=O)C12C3C4C1C1C4(C(=O)C45C6C7C4C4C5C6C74C)C3C12C)C(C)(C)C (stereo not given)
35.1 µM: HT29 colon
81.7 µM: SK-MEL-5 melanoma
not listed: MCF7 breast | RXF 393 renal | DU-145 prostate
> 100 µM: all other assays above
